Key:
Settings in all cases: 72 h
BV-173 [1] = tested on: BV-173
How it was run: (§1)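 The IC50 was read from log-logistic dose–response fits. Fifteen myeloid leukaemia lines were exposed for 72 h at 37 °C with 5% CO2 to five tenfold doses from 1 to 10,000 nM in duplicate. ATP luminescence, normalised to vehicle and to a 10 µM positive control, was fitted with four parameters.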

HEL [2] = tested on: HEL
How it was run: as §1

HL-60 [3] = tested on: HL-60
How it was run: as §1

K-562 [4] = tested on: K-562
How it was run: as §1

KCL-22 [5] = tested on: KCL-22
How it was run: as §1

KG-1 [6] = tested on: KG-1
How it was run: as §1

KU-812 = tested on: KU-812
How it was run: as §1

LAMA-84 [7] = tested on: LAMA-84
How it was run: as §1

ML-2 [8] = tested on: ML-2
How it was run: as §1

MOLM-13 = tested on: MOLM-13
How it was run: as §1

MV4-11 [9] = tested on: MV4-11
How it was run: as §1

Mono-Mac-6 [10] = tested on: Mono-Mac-6
How it was run: as §1

NOMO-1 = tested on: NOMO-1
How it was run: as §1

SHI-1 [11] = tested on: SHI-1
How it was run: as §1

THP-1 = tested on: THP-1
How it was run: as §1

HL-60 [12] = assay: cell viability (% survival relative to DMSO control); higher = less cytotoxic
How it was run: (§2)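 A rescreen of the full library used HL-60 cells in RPMI 1640 with 10% FBS on 384-well plates, run in duplicate at five tenfold concentrations (1–10,000 nM). Each screen included DMSO or 100 nM of one of three metabolic inhibitors and ran 72 h at 37 °C, 5% CO2. CellTiter-Glo viability was scaled between DMSO and 10 μM proteasome-inhibitor wells. Any area under the curve comes from four-parameter log-logistic fits with drc and PharmacoGx.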

BV-173 [13] = assay: cell viability (% survival relative to DMSO control, bortezomib = 0%); higher = less cytotoxic
How it was run: (§3)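 Seeding density for each of the 10 AML and 5 CML cell lines was titrated to the linear growth range. Cells went into 384-well plates pre-printed in duplicate with compounds at 1, 10, 100, 1000 or 10000 nM and were held for 72 h at 37 °C with 5% CO2. CellTiter-Glo luminescence then provided the readout. Percent survival is expressed relative to vehicle at 100% and a 10 µM positive control at 0%, averaged over duplicates.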

HEL [14] = assay: as above
How it was run: as §3

HL-60 [15] = assay: as above
How it was run: as §3

K-562 [16] = assay: as above
How it was run: as §3

KCL-22 [17] = assay: as above
How it was run: as §3

KG-1 [18] = assay: as above
How it was run: as §3

LAMA-84 [19] = assay: as above
How it was run: as §3

ML-2 [20] = assay: as above
How it was run: as §3

MV4-11 [21] = assay: as above
How it was run: as §3

Mono-Mac-6 [22] = assay: as above
How it was run: as §3

SHI-1 [23] = assay: as above
How it was run: as §3

HL-60 [24] = assay: area under dose-response curve (viability, 1 nM-10 uM) (fraction (0-1)); higher = more sensitive
How it was run: as §2

CC(C)(F)C[C@H](N[C@@H](c1ccc(-c2ccc(S(C)(=O)=O)cc2)cc1)C(F)(F)F)C(=O)NC1(C#N)CC1 [Odanacatib]
Settings	IC50 (cell viability)
BV-173 [1]	> 10000 nM
HEL [2]	> 10000 nM
HL-60 [3]	> 10000 nM
K-562 [4]	> 10000 nM
KCL-22 [5]	> 10000 nM
KG-1 [6]	> 10 µM
KU-812	> 10000 nM
LAMA-84 [7]	> 10000 nM
ML-2 [8]	> 10000 nM
MOLM-13	> 10000 nM
MV4-11 [9]	> 10000 nM
Mono-Mac-6 [10]	> 10000 nM
NOMO-1	> 10000 nM
SHI-1 [11]	> 10000 nM
THP-1	> 10 µM

cell viability [%], HL-60 [12]
Settings	0.001 µM	0.01 µM	0.1 µM	1 µM	10 µM
co-treatment: AZD3965 100 nM	99.32	95.1	102	96.26	101
co-treatment: DMSO vehicle	95.8	98.4	100	95	97.6
co-treatment: GSK2194069 100 nM	80.8	89.4	97.1	90	89.3
co-treatment: pictilisib 100 nM	66.7	112	94.9	96.43	90

Settings	area under dose-response curve, co-treatment: AZD3965 100 nM	area under dose-response curve, co-treatment: DMSO vehicle	area under dose-response curve, co-treatment: GSK2194069 100 nM	area under dose-response curve, co-treatment: pictilisib 100 nM	cell viability, 1 nM [%]	cell viability, 10 nM [%]	cell viability, 100 nM [%]	cell viability, 1000 nM [%]	cell viability, 10000 nM [%]
BV-173 [13]	–	–	–	–	85.1	104	101	88.7	106
HEL [14]	–	–	–	–	104	107	99.9	92.7	107
HL-60 [15]	–	–	–	–	143	105	114	118	83.3
HL-60 [24]	< 0.0301	< 0.0301	< 0.0301	< 0.0301	–	–	–	–	–
K-562 [16]	–	–	–	–	101	106	104	91.8	103
KCL-22 [17]	–	–	–	–	128	96.9	104	93.7	122
KG-1 [18]	–	–	–	–	103	99.6	95.6	107	103
LAMA-84 [19]	–	–	–	–	104	103	106	89	102
ML-2 [20]	–	–	–	–	107	101	96.5	100	101
MV4-11 [21]	–	–	–	–	109	105	111	97.9	112
Mono-Mac-6 [22]	–	–	–	–	96.4	101	101	99.2	85.5
SHI-1 [23]	–	–	–	–	109	107	99.9	98.5	117

Nc1nc(O)c2c(CCc3ccc(C(=O)N[C@@H](CCC(=O)O)C(=O)O)cc3)c[nH]c2n1 [Pemetrexed]
Settings	IC50 (cell viability)
BV-173 [1]	381 nM
HEL [2]	116 nM
HL-60 [3]	617 nM
K-562 [4]	1660 nM
KCL-22 [5]	279 nM
KG-1 [6]	> 10 µM
KU-812	239 nM
LAMA-84 [7]	58.5 nM
ML-2 [8]	336 nM
MOLM-13	305 nM
MV4-11 [9]	425 nM
Mono-Mac-6 [10]	312 nM
NOMO-1	1370 nM
SHI-1 [11]	2320 nM
THP-1	7.02 µM

cell viability [%], HL-60 [12]
Settings	0.001 µM	0.01 µM	0.1 µM	1 µM	10 µM
co-treatment: AZD3965 100 nM	91.8	98.6	107	41.5	28
co-treatment: DMSO vehicle	102	100.6	112	43.8	36.8
co-treatment: GSK2194069 100 nM	71.6	95.7	122	40.1	32.2
co-treatment: pictilisib 100 nM	74.2	100.6	121	47.2	32.2

Settings	area under dose-response curve, co-treatment: AZD3965 100 nM	area under dose-response curve, co-treatment: DMSO vehicle	area under dose-response curve, co-treatment: GSK2194069 100 nM	area under dose-response curve, co-treatment: pictilisib 100 nM	cell viability, 1 nM [%]	cell viability, 10 nM [%]	cell viability, 100 nM [%]	cell viability, 1000 nM [%]	cell viability, 10000 nM [%]
BV-173 [13]	–	–	–	–	89.2	91.9	104	4.73	1.8
HEL [14]	–	–	–	–	104	90.7	57.8	11.6	7.51
HL-60 [15]	–	–	–	–	110	99.6	113	31.5	9.36
HL-60 [24]	0.24	0.233	0.236	0.223	–	–	–	–	–
K-562 [16]	–	–	–	–	95.8	104	92.3	68.4	27.8
KCL-22 [17]	–	–	–	–	98.5	102	78.4	36.9	24.3
KG-1 [18]	–	–	–	–	92	93.5	91.6	108	102
LAMA-84 [19]	–	–	–	–	99	99.3	40	30.7	26
ML-2 [20]	–	–	–	–	102	101	96.3	14	10.5
MV4-11 [21]	–	–	–	–	98.7	94.2	106	13.4	5.7
Mono-Mac-6 [22]	–	–	–	–	91.2	92.2	87.3	23.5	20.3
SHI-1 [23]	–	–	–	–	99.2	102	106	68	43.4

C=C1NC(=O)c2cc(CN(C)c3ccc(C(=O)N[C@@H](CCC(=O)O)C(=O)O)s3)ccc2N1 [Raltitrexed]
Settings	IC50 (cell viability)
BV-173 [1]	52.4 nM
HEL [2]	37.6 nM
HL-60 [3]	422 nM
K-562 [4]	201 nM
KCL-22 [5]	69.8 nM
KG-1 [6]	> 10 µM
KU-812	56 nM
LAMA-84 [7]	42.8 nM
ML-2 [8]	122 nM
MOLM-13	47.9 nM
MV4-11 [9]	91.9 nM
Mono-Mac-6 [10]	45.2 nM
NOMO-1	82.9 nM
SHI-1 [11]	562 nM
THP-1	0.193 µM

cell viability [%], HL-60 [12]
Settings	0.001 µM	0.01 µM	0.1 µM	1 µM	10 µM
co-treatment: AZD3965 100 nM	99.38	74.1	76.3	25.7	24.2
co-treatment: DMSO vehicle	101	88.5	55.7	31.6	27.6
co-treatment: GSK2194069 100 nM	98.5	79.7	53.7	30.6	23.3
co-treatment: pictilisib 100 nM	101	78.4	51.8	34.2	26.11

Settings	area under dose-response curve, co-treatment: AZD3965 100 nM	area under dose-response curve, co-treatment: DMSO vehicle	area under dose-response curve, co-treatment: GSK2194069 100 nM	area under dose-response curve, co-treatment: pictilisib 100 nM	cell viability, 1 nM [%]	cell viability, 10 nM [%]	cell viability, 100 nM [%]	cell viability, 1000 nM [%]	cell viability, 10000 nM [%]
BV-173 [13]	–	–	–	–	95.6	163	8.17	1.32	3.9
HEL [14]	–	–	–	–	100	109	6.54	6.59	7.77
HL-60 [15]	–	–	–	–	108	127	116	6.78	6.89
HL-60 [24]	0.598	0.412	0.42	0.432	–	–	–	–	–
K-562 [16]	–	–	–	–	104	121	86.5	49.2	52.4
KCL-22 [17]	–	–	–	–	103	107	45.4	21.2	22
KG-1 [18]	–	–	–	–	101	103	101	100	102
LAMA-84 [19]	–	–	–	–	97.1	108	27.7	22.4	26.6
ML-2 [20]	–	–	–	–	93.9	121	61.6	5.21	6.92
MV4-11 [21]	–	–	–	–	108	110	48.1	4.34	6.68
Mono-Mac-6 [22]	–	–	–	–	94.2	108	19.4	8.75	9.59
SHI-1 [23]	–	–	–	–	106	118	99.8	38.4	43.3

From the supplement of paper PMC8671470
